Laboratory results as given in patent publication US9249131B2, “Modulators of ATP-binding cassette transporters” (Vertex Pharmaceuticals Incorporated, priority 2003, dated 2016).

Target: T1, ΔF508-CFTR (Homo sapiens, UniProt P13569, DEL508-508)
T1 construct: expressed in transfected cells; host or cells: NIH3T3 mouse fibroblasts stably expressing ΔF508-CFTR for the optical, whole-cell and single-channel assays; Fisher rat epithelial (FRT) cells for Ussing chamber follow-up
Assay: Assays for ΔF508-CFTR correction and potentiator properties (membrane potential optical and electrophysiological methods)
Format: cell-based
Details: CFTR modulation; for % Activity: % Efficacy; for EC50: tested using the above methods
Description: Assays for Detecting and Measuring ΔF508-CFTR Correction and Potentiator Properties of Compounds
A) Membrane Potential Optical Methods for Assaying ΔF508-CFTR Modulation Properties of Compounds
The optical membrane potential assay utilized voltage-sensitive FRET sensors described by Gonzalez and Tsien (See, Gonzales, J. E. and R. Y. Tsien (1995) “Voltage sensing by fluorescence resonance energy transfer in single cells” Biophys J 69 (4): 1272-80, and Gonzalez, J. E. and R. Y. Tsien (1997) “Improved indicators of cell membrane potential that use fluorescence resonance energy transfer” Chem Biol 4 (4): 269-77) in combination with instrumentation for measuring fluorescence changes such as the Voltage/Ion Probe Reader (VIPR) (See, Gonzalez, J. E., K. Oades, et al. (1999) “Cell-based assays and instrumentation for screening ion-channel targets” Drug Discov Today 4 (9): 431-439).
These voltage sensitive assays are based on the change in fluorescence resonant energy transfer (FRET) between the membrane-soluble, voltage-sensitive dye, DiSBAC2 (3), and a fluorescent phospholipid, CC2-DMPE, which is attached to the outer leaflet of the plasma membrane and acts as a FRET donor. Changes in membrane potential (Vm) cause the negatively charged DiSBAC2(3) to redistribute across the plasma membrane and the amount of energy transfer from CC2-DMPE changes accordingly. The changes in fluorescence emission were monitored using VIPR™ II, which is an integrated liquid handler and fluorescent detector designed to conduct cell-based screens in 96- or 384-well microtiter plates.
To identify small molecules that correct the trafficking defect associated with ΔF508-CFTR; a single-addition HTS assay format was developed. The cells were incubated in serum-free medium for 16 hrs at 37° C. in the presence or absence (negative control) of test compound. As a positive control, cells plated in 384-well plates were incubated for 16 hrs at 27° C. to “temperature-correct” ΔF508-CFTR. The cells were subsequently rinsed 3× with Krebs Ringers solution and loaded with the voltage-sensitive dyes. To activate ΔF508-CFTR, […] and the CFTR potentiator, genistein ([…]), were added along with Cl^−-free medium to each well. The addition of Cl^−-free medium promoted Cl^− efflux in response to ΔF508-CFTR activation and the resulting membrane depolarization was optically monitored using the FRET-based voltage-sensor dyes.
To identify potentiators of ΔF508-CFTR, a double-addition HTS assay format was developed. During the first addition, a Cl^−-free medium with or without test compound was added to each well. After 22 sec, a second addition of Cl^−-free medium containing 2-10 µM forskolin was added to activate ΔF508-CFTR. The extracellular Cl^− concentration following both additions was 28 mM, which promoted Cl^− efflux in response to ΔF508-CFTR activation and the resulting membrane depolarization was optically monitored using the FRET-based voltage-sensor dyes.
• Bath Solution #1: (in mM) NaCl 160, KCl 4.5, CaCl2 2, MgCl2 1, HEPES 10, pH 7.4 with NaOH. • Chloride-free bath solution: Chloride salts in Bath Solution #1 are substituted with gluconate salts. • CC2-DMPE: Prepared as a 10 mM stock solution in DMSO and stored at −20° C. • DiSBAC2(3): Prepared as a 10 mM stock in DMSO and stored at −20° C. Cell Culture
NIH3T3 mouse fibroblasts stably expressing ΔF508-CFTR are used for optical measurements of membrane potential. The cells are maintained at 37° C. in 5% CO2 and 90% humidity in Dulbecco's modified Eagle's medium supplemented with 2 mM glutamine, 10% fetal bovine serum, 1×NEAA, β-ME, 1×pen/strep, and 25 mM HEPES in 175 cm^2 culture flasks. For all optical assays, the cells were seeded at 30,000/well in 384-well matrigel-coated plates and cultured for 2 hrs at 37° C. before culturing at 27° C. for 24 hrs. for the potentiator assay. For the correction assays, the cells are cultured at 27° C. or 37° C. with and without compounds for 16-24 hours.

T1 sequence (P13569 with tags, fused parts or gaps DEL508-508): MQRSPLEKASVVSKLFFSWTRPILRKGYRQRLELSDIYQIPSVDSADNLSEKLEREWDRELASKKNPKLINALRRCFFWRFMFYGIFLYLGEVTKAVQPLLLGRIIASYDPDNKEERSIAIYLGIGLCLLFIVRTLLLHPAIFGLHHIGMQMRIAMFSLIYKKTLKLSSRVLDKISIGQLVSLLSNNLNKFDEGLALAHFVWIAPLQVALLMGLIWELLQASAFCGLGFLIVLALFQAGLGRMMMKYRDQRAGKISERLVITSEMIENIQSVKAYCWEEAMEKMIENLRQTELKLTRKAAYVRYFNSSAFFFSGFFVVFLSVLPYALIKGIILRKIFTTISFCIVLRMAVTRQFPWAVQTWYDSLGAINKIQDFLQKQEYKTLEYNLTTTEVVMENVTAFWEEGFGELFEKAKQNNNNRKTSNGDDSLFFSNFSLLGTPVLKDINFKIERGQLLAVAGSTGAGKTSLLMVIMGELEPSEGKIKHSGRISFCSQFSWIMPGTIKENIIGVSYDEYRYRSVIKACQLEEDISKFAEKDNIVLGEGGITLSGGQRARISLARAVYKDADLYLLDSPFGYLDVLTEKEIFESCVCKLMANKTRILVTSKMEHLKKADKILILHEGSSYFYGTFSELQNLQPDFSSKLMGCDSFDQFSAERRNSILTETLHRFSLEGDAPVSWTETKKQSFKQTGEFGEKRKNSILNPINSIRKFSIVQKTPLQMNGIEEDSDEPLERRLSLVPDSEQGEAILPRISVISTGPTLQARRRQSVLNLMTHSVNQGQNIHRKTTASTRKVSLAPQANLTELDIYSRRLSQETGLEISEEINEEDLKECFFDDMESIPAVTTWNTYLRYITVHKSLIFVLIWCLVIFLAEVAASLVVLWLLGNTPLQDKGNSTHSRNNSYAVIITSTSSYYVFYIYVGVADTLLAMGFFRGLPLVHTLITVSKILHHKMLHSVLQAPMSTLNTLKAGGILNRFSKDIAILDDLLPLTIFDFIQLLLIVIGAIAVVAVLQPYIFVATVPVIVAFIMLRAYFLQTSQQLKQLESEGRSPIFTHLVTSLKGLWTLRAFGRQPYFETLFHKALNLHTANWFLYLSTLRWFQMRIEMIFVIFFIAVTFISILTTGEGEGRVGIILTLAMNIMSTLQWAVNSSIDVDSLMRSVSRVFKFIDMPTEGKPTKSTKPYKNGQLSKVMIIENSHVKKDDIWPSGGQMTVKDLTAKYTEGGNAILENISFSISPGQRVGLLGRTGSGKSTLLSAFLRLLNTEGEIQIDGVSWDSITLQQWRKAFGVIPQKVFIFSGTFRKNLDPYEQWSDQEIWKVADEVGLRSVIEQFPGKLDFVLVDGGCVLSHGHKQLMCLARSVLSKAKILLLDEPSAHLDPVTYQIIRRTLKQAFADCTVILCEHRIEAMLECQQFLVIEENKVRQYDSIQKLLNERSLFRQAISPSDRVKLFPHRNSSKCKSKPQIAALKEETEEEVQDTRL

% Activity	EC50	SMILES
++ (“++” means between 25% to 100%)	< 10 µM	CC[C@H](C(=O)Nc1ncc(Cc2ccccc2Cl)s1)c1ccccc1 [compound 202]
++ (“++” means between 25% to 100%)	10 to 25 µM	COc1ccccc1-c1csc(NC(=O)c2cccc(Cl)c2)n1 [compound 227]
+++ (“+++” means >100%)	10 to 25 µM	CCc1ccc(C(=O)Nc2nc3ccccc3s2)cc1 [compound 10]
++ (“++” means between 25% to 100%)	10 to 25 µM	CCOc1ccc2nc(NC(=O)C3CCCCC3)sc2c1 [compound 1]
++ (“++” means between 25% to 100%)	< 10 µM	O=C(Nc1nc(-c2ccccc2)c(-c2ccccc2)s1)C1CCCCC1 [compound 114]
++ (“++” means between 25% to 100%)	< 10 µM	CCC(C)C(C(=O)Nc1ncc(Cc2ccccc2OC)s1)c1ccccc1 (centres unmarked) [compound 137]
++ (“++” means between 25% to 100%)	10 to 25 µM	COc1ccccc1-c1csc(NC(=O)c2cccc(C)c2)n1 [compound 5]
++ (“++” means between 25% to 100%)	10 to 25 µM	CCC(Oc1ccccc1)C(=O)Nc1ncc(Cc2ccccc2Cl)s1 (centres unmarked) [compound 252]
+++ (“+++” means >100%)	< 10 µM	Cc1ccc(-c2csc(NC(=O)c3ccccc3)n2)c(C)c1 [compound 2]
++ (“++” means between 25% to 100%)	< 10 µM	COc1ccc(Cc2cnc(NC(=O)C(c3ccccc3)c3ccccc3)s2)cc1 [compound 27]
++ (“++” means between 25% to 100%)	10 to 25 µM	O=C(Nc1ncc(Cc2ccccc2Cl)s1)c1cccc2ccccc12 [compound 26]
+++ (“+++” means >100%)	< 10 µM	CC(C)CC(=O)Nc1nc(-c2ccccc2)c(-c2ccccc2)s1 [compound 110]
++ (“++” means between 25% to 100%)	10 to 25 µM	CCC(C(=O)Nc1ncc(Cc2ccccc2C#N)s1)c1ccccc1 (centres unmarked) [compound 258]
+++ (“+++” means >100%)	< 10 µM	CC(C)C(C(=O)Nc1ncc(Cc2ccccc2Cl)s1)c1ccccc1 (centres unmarked) [compound 103]
+++ (“+++” means >100%)	< 10 µM	Cc1nc(NC(=O)COc2ccccc2C(C)C)sc1C [compound 64]
++ (“++” means between 25% to 100%)	< 10 µM	O=C(Nc1nc(-c2ccccc2)c(-c2ccccc2)s1)c1ccccc1Cl [compound 104]
+++ (“+++” means >100%)	10 to 25 µM	COc1cccc(-c2csc(NC(=O)c3cccc(C)c3)n2)c1 [compound 231]
++ (“++” means between 25% to 100%)	< 10 µM	COC(=O)c1ccccc1C(=O)Nc1nc(-c2ccccc2)cs1 [compound 171]
++ (“++” means between 25% to 100%)	< 10 µM	COc1ccc(-c2ccc(C(=O)Nc3nc4ccc(OC)cc4s3)cc2)cc1 [compound 15]
++ (“++” means between 25% to 100%)	< 10 µM	O=C(Nc1ncc(Cc2ccc(Cl)cc2)s1)C(c1ccccc1)c1ccccc1 [compound 38]
++ (“++” means between 25% to 100%)	10 to 25 µM	Cc1ccccc1C(=O)Nc1nc(-c2ccccc2)cs1 [compound 75]
++ (“++” means between 25% to 100%)	< 10 µM	COc1ccccc1Cc1cnc(NC(=O)C(c2ccc(Cl)cc2)c2ccc(Cl)cc2)s1 [compound 134]
++ (“++” means between 25% to 100%)	< 10 µM	O=C(Nc1ncc(Cc2ccccc2Cl)o1)c1ccccc1 [compound 195]

% Activity	EC50	SMILES
++ (“++” means between 25% to 100%)	10 to 25 µM	CCOC(C(=O)Nc1ncc(Cc2ccccc2Cl)s1)c1ccccc1 (centres unmarked) [compound 234]
++ (“++” means between 25% to 100%)	< 10 µM	CCC(C(=O)Nc1nc(-c2ccccc2)cs1)c1ccccc1 (centres unmarked) [compound 167]
++ (“++” means between 25% to 100%)	< 10 µM	CC(C(=O)Nc1ncc(Cc2cccc(Cl)c2)o1)c1ccccc1 (centres unmarked) [compound 153]
+++ (“+++” means >100%)	< 10 µM	COc1cccc(C(=O)Nc2nc(-c3ccccc3)c(-c3ccccc3)s2)c1 [compound 105]
++ (“++” means between 25% to 100%)	10 to 25 µM	COc1cccc(C(=O)Nc2nc(-c3ccccc3)cs2)c1 [compound 49]
++ (“++” means between 25% to 100%)	< 10 µM	O=C(Nc1nc(-c2ccccc2)c(-c2ccccc2)s1)C1CCOC1 (centres unmarked) [compound 116]
++ (“++” means between 25% to 100%)	10 to 25 µM	CC(C)C(=O)Nc1nc(-c2ccccc2)cs1 [compound 85]
++ (“++” means between 25% to 100%)	25 to 60 µM	CNC(C(=O)Nc1ncc(Cc2ccccc2Cl)s1)c1ccccc1 (centres unmarked) [compound 217]
++ (“++” means between 25% to 100%)	10 to 25 µM	O=C(Nc1nc(-c2ccccc2)cs1)c1ccccc1Cl [compound 77]
++ (“++” means between 25% to 100%)	10 to 25 µM	COc1ccc(C(=O)Nc2nc(-c3cccc(OC)c3)cs2)cc1 [compound 84]
++ (“++” means between 25% to 100%)	< 10 µM	CCCc1nc(NC(=O)C(CC)c2ccccc2)sc1C(=O)OCC (centres unmarked) [compound 288]
++ (“++” means between 25% to 100%)	10 to 25 µM	O=C(Nc1nc(-c2ccc(N3CCCC3)cc2)cs1)c1ccccc1 [compound 163]
++ (“++” means between 25% to 100%)	< 10 µM	CCC(C)C(C(=O)Nc1ncc(Cc2ccc(Cl)cc2)o1)c1ccccc1 (centres unmarked) [compound 147]
+++ (“+++” means >100%)	< 10 µM	CCC(C(=O)Nc1ncc(Cc2ccccc2Cl)s1)c1ccccc1 (centres unmarked) [compound 97]
+++ (“+++” means >100%)	< 10 µM	O=C(Nc1ncc(Cc2ccccc2Cl)s1)C(c1ccccc1)c1ccccc1 [compound 37]
++ (“++” means between 25% to 100%)	< 10 µM	O=C(Nc1ncc(Cc2ccccc2Cl)s1)C1CC1 [compound 207]
++ (“++” means between 25% to 100%)	< 10 µM	O=C(Nc1ncc(Cc2ccccc2Cl)s1)C(c1ccccc1)N1CCCCC1 (centres unmarked) [compound 215]
+++ (“+++” means >100%)	< 10 µM	O=C(Nc1nc2c(s1)CCCC2)c1cccc(Br)c1 [compound 8]
+++ (“+++” means >100%)	< 10 µM	CCOC(=O)C1CCN(C(C(=O)Nc2ncc(Cc3ccccc3Cl)s2)c2ccccc2)CC1 (centres unmarked) [compound 247]
++ (“++” means between 25% to 100%)	< 10 µM	CN(C)C(C(=O)Nc1ncc(Cc2ccccc2Cl)s1)c1ccccc1 (centres unmarked) [compound 211]
++ (“++” means between 25% to 100%)	< 10 µM	CC(CC(=O)Nc1ncc(Cc2ccccc2Cl)s1)c1ccccc1 (centres unmarked) [compound 271]
++ (“++” means between 25% to 100%)	10 to 25 µM	Cc1cccc(Cc2cnc(NC(=O)c3ccccc3Cl)s2)c1 [compound 54]
++ (“++” means between 25% to 100%)	10 to 25 µM	Cc1ccc(C(=O)Nc2nc(-c3ccccc3)cs2)cc1 [compound 67]
